Target: PD-1/PD-L1 interaction (PD-1-Ig / PD-L1-His) (Homo sapiens (Human), UniProt Q9NZQ7)
Assay: PD-1/PD-L1 Homogenous Time-Resolved Fluorescence (HTRF) binding assay
Settings: PD-L1-His 10 nM final, PD-1-Ig 20 nM final
From the text: The ability of the compounds of the invention to bind to PD-L1 was investigated using a PD-1/PD-L1 Homogenous Time-Resolved Fluorescence (HTRF) binding assay.
The interaction of PD-1 and PD-L1 can be assessed using soluble, purified preparations of the extracellular domains of the two proteins. The PD-1 and PD-L1 protein extracellular domains were expressed as fusion proteins with detection tags, for PD-1, the tag was the Fc portion of Immunoglobulin (PD-1-Ig) and for PD-L1 it was the 6 histidine motif (PD-L1-His). All binding studies were performed in an HTRF assay buffer consisting of dPBS supplemented with 0.1% […] bovine serum albumin and 0.05% (v/v) Tween-20. For the h/PD-L1-His binding assay, inhibitors were pre-incubated with PD-L1-His (10 nM final) for 15 m in 4 μl of assay buffer, followed by addition of PD-1-Ig (20 nM final) in 1 μl of assay buffer and further incubation for 15 m. HTRF detection was achieved using europium crypate-labeled anti-Ig (1 nM final) and allophycocyanin (APC) labeled anti-His (20 nM final). Antibodies were diluted in HTRF detection buffer and 5 μl was dispensed on top of the binding reaction. The reaction mixture was allowed to equilibrate for 30 minutes and the resulting signal (665 nm/620 nm ratio) was obtained using an EnVision fluorometer. Additional binding assays were established between the human proteins PD-1-Ig/PD-L2-His (20 & 5 nM, respectively) and CD80-His/PD-L1-Ig (100 & 10 nM, respectively).
Recombinant Proteins: Human PD-1 (25-167) with a C-terminal human Fc domain of immunoglobulin G (Ig) epitope tag [hPD-1 (25-167)-3S-IG] and human PD-L1 (18-239) with a C-terminal His epitope tag [hPD-L1(18-239)-TVMV-His] were expressed in HEK293T cells and purified sequentially by ProteinA affinity chromatography and size exclusion chromatography. Human PD-L2-His and CD80-His was obtained through commercial sources.
Homogenous Time-Resolved Fluorescence (HTRF) Assays of Binding of Soluble PD-1 to Soluble PD-L1. Soluble PD-1 and soluble PD-L1 refers to proteins with carboxyl-end truncations that remove the transmembrane-spanning regions and are fused to heterologous sequences, specifically the Fc portion of the human immunoglobuling G sequence (Ig) or the hexahistidine epitope tag (His). All binding studies were performed in an HTRF assay buffer consisting of dPBS supplemented with 0.1% (w/v) bovine serum albumin and 0.05% (v/v) Tween-20. For the PD-1-Ig/PD-L1-His binding assay, inhibitors were pre-incubated with PD-L1-His (10 nM final) for 15 m in 4 μl of assay buffer, followed by addition of PD-1-Ig (20 nM final) in 1 μl of assay buffer and further incubation for 15 m. PD-L1 fusion proteins from either human, cynomologous macaques, mouse, or other species were used. HTRF detection was achieved using europium crypate-labeled anti-Ig monoclonal antibody (1 nM final) and allophycocyanin (APC) labeled anti-His monoclonal antibody (20 nM final). Antibodies were diluted in HTRF detection buffer and 5 μl was dispensed on top of binding reaction. The reaction was allowed to equilibrate for 30 minutes and signal (665 nm/620 nm ratio) was obtained using an EnVision fluorometer. Additional binding assays were established between PD-1-Ig/PD-L2-His (20 and 5 nM, respectively), CD80-His/PD-L1-Ig (100 and 10 nM, respectively) and CD80-His/CTLA4-Ig (10 and 5 nM, respectively).
Recombinant Proteins. Carboxyl-truncated human PD-1 (amino acids 25-167) with a C-terminal human Ig epitope tag [hPD-1 (25-167)-3S-IG] and human PD-L1 (amino acids 18-239) with a C-terminal His epitope tag [hPD-L1(19-239)-tobacco vein mottling virus protease cleavage site (TVMV)-His] were expressed in HEK293T cells and purified sequentially by recombinant Protein A affinity chromatography and size exclusion chromatography. Human PD-L2-His (Sino Biologicals), CD80-His (Sino Biologicals), CTLA4-Ig (RnD Systems) were all obtained through commercial sources.

Sequence of PD-1/PD-L1 interaction (PD-1-Ig / PD-L1-His) (Q9NZQ7 18-239): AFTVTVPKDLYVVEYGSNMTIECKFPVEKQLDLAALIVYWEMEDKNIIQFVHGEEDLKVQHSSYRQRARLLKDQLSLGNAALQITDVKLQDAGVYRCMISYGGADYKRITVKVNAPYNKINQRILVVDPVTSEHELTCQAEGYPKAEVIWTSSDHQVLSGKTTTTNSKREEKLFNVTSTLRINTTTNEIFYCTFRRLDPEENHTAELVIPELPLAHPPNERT

Row | Structure (SMILES) | IC50 [nM]
1 | Cc1c(COc2cc(OCc3cncc(C#N)c3)c(CN(CC3CC3)C3(C)CCOC3=O)cc2Cl)cccc1-c1cccc(COc2cc(OCc3cncc(C#N)c3)c(CN(CC3CC3)C3(C)CCOC3=O)cc2Cl)c1C (centres unmarked) [Compound 1052] | 2500
2 | Cc1c(COc2cc(OCc3cncc(C#N)c3)c(CN[C@H]3CCOC3=O)cc2Cl)cccc1-c1cccc(COc2cc(OCc3cncc(C#N)c3)c(CN[C@H]3CCOC3=O)cc2Cl)c1C [Compound 1019] | 18.3
3 | Cc1c(COc2cc(OCc3cncc(C#N)c3)c(CNC3CC(=O)OC3(C)C)cc2Cl)cccc1-c1cccc(COc2cc(OCc3cncc(C#N)c3)c(CNC3CC(=O)OC3(C)C)cc2Cl)c1C (centres unmarked) [Compound 1021] | 121
4 | Cc1c(COc2cc(OCc3cncc(C#N)c3)c(CN[C@H]3CCNC3=O)cc2Cl)cccc1-c1cccc(OCC2CCCN(C)C2)c1Cl (some centres unmarked) [Compound 1010] | 2.3
5 | Cc1c(COc2cc(OCc3cncc(C#N)c3)c(CNC3(C)CC(C)(C)OC3=O)cc2Cl)cccc1-c1cccc(COc2cc(OCc3cncc(C#N)c3)c(CNC3(C)CC(C)(C)OC3=O)cc2Cl)c1C (centres unmarked) [Compound 1025] | > 10000
6 | Cc1c(COc2cc(OCc3cncc(C#N)c3)c(CN[C@@H]3COC(=O)C3)cc2Cl)cccc1-c1cccc(OCC2CCCN(C)C2)c1Cl (some centres unmarked) [Compound 1004] | 3.1
7 | Cc1c(COc2cc(OCc3cncc(C#N)c3)c(CNC3C(=O)OCC3(C)C)cc2Cl)cccc1-c1cccc(OCC2CCCN(C)C2)c1Cl (centres unmarked) [Compound 1008] | 4.4
8 | N#Cc1cncc(COc2cc(OCc3cccc(-c4cccc(COc5cc(OCc6cncc(C#N)c6)c(CN[C@H]6CCOC6=O)cc5Cl)c4Cl)c3Cl)c(Cl)cc2CN[C@H]2CCOC2=O)c1 [Compound 1026] | 10.4
9 | COc1cc(OCc2cccc(-c3cccc(OCC4CCCN(C)C4)c3Cl)c2C)c(Cl)cc1CNC1CCOC1=O (centres unmarked) [Compound 1032] | 7.8
10 | Cc1c(COc2cc(OCc3cncc(C#N)c3)c(CNC3CC(C)(C)OC3=O)cc2Cl)cccc1-c1cccc(COc2cc(OCc3cncc(C#N)c3)c(CNC3CC(C)(C)OC3=O)cc2Cl)c1C (centres unmarked) [Compound 1022] | 145
11 | Cc1c(COc2cc(OCc3cncc(C#N)c3)c(CNC3CC(C)OC3=O)cc2Cl)cccc1-c1cccc(OCC2CCCN(C)C2)c1Cl (centres unmarked) [Compound 1006] | 2.6
